{"source": "patent US8389768B2", "about": "“Methods and compositions comprising novel cationic lipids” (The University of North Carolina at Chapel Hill, priority 2008, dated 2013)", "key": {"[1]": {"system": "H460 cells", "assay": "Chemosensitization study with cisplatin (MTT assay)", "type": "cell-based, human", "settings": "48 h", "procedure": "(§1) The cell viability values shown are the averages of triplicate experiments performed on the same day. […] Data=mean, n=3.\nH460 cells (1×10^4 per well) were seeded into 12-well plates. Cells were incubated with different lipids at 10 μM and cisplatin (Sigma-Aldrich, St. Louis, Mo.) at different concentrations in serum-containing medium at 37° C. Cell viability was detected by the MTT assay 48 h later.\n(§2) The cytotoxic effects of the three novel lipids at various concentrations were assessed in H460 cells after exposure to lipids 1-3 and DOTAP for 48 h using the MTT assay (FIG. 5A). […] To assess the chemo-sensitization ability of these lipids to anticancer drugs such as cisplatin, H460 cells were exposed to each of these agents for 48 h, alone and in combination with cisplatin."}, "[2]": {"system": "ERK1/2", "assay": "ERK1/2 activation in dendritic cells", "type": "cell-based", "settings": "low concentration (1 μM)", "description": "Total ERK1/2 expression remained unperturbed under all conditions."}, "[3]": {"system": "H460 cells", "assay": "Flow cytometry with PI staining (apoptosis rate) after free lipid", "type": "cell-based, human", "settings": "10 μM lipid, 3 h", "description": "There was no statistically significant difference between the cytotoxicities of DSGLA and lipid 1."}, "[4]": {"system": "B16F10 melanoma cells", "assay": "Intracellular uptake of fluorescently-labeled siRNA in B16F10 cells", "type": "cell-based", "settings": "4 h, CY3-siRNA, lipid as cationic lipid of LPD-PEG / LPD-PEG-AA, vs DOTAP, AA vs no AA", "procedure": "FIG. 9 presents fluorescence photographs of B16F10 cells after a 4 h treatment with 3′ CY3-labeled siRNA against an irrelevant target in LPD-PEG or LPD-PEG-AA nanoparticles formulated with the cationic lipid DSAA, DSGLA, or DOTAP.\nWe post inserted PEGylated lipids onto a LPD formulation, a nonviral vector developed in our lab as a nanocarrier for siRNA delivery, to increase the serum stability. In addition, we also tethered anisamide, a compound that specifically binds to the sigma receptor, to the distal end of PEG as a targeting ligand. […] Furthermore, the fluorescence signal in the cells treated with LPD-PEG-AA was much stronger than that of cells treated with LPD-PEG."}, "[5]": {"system": "B16F10 cells (that stably express luciferase)", "assay": "In vitro luciferase gene silencing", "type": "cell-based", "settings": "24 h, 37° C., lipid as cationic lipid of the LPD formulation, vs DOTAP and DSGLA, AA vs no AA", "description": "We examined the gene silencing effect by siRNA in different compositions. […] Furthermore, the silencing effect in the cells treated with LPD-PEG-AA was much stronger than that of cells treated with LPD-PEG."}, "[6]": {"system": "H460 cells", "assay": "In vitro transfection (pCMV-Luc luciferase reporter gene delivery)", "type": "cell-based, human", "settings": "presence of serum, cholesterol co-lipid 1:1, pCMV-Luc, lipid/DNA charge ratios 8:1 to 1:1", "protocol": "RLU/pgram of protein was plotted against the lipid to DNA (+/−) charge ratios. The transfection efficiencies of the lipids were compared to that of commercially available N-(2,3-dioleoyloxy) propyl)-N,N,N-trimethylammonium chloride (DOTAP) and Lipofectamine™ 2000. The transfection values shown are the average of triplicate experiments performed on the same day.\nH460 human large-cell lung carcinoma cells were seeded at a density of 20,000 cells per well in a 96-well plate 18-24 h prior to the transfection. Plasmid DNA (0.3 μg) was complexed with varying amounts of lipids (0.9-7.2 nmol) in plain RPMI medium (total volume of 100 μL) for 20 min. The charge ratios were varied from 1:1 to 8:1 (+/−) over these ranges of the lipids. The complexes were then added to the cells. After 3 h of incubation, 100 μL of RPMI with 20% FBS was added to the cells. The reporter gene activity was estimated after 24 h. The cells were washed twice with phosphate-buffered saline (PBS, 100 μL each) and lysed in 100 μL of lysis buffer (0.1 M Tris-HCl, 2 mM EDTA, 0.5% Triton X100, pH 7.8). Care was taken to ensure complete lysis. The cell lysate was then centrifuged at 14,000 rpm for 5 min. […] The protein concentration within the cellular lysates was quantified with the BSA standards from the Micro BSA™ Protein assay kit as supplied by Pierce Chemical Company (Rockford, Ill.). […]"}, "[7]": {"system": "H460 cells", "assay": "Cellular growth inhibition study (MTT assay)", "procedure": "as §1\nH460 cells (1×10^4 per well) were seeded into 12-well plates. Cells were treated with different lipids at various concentrations in serum-containing medium at 37° C. for 72 h. Cell viability was then detected by an MTT assay. Briefly, 100 μL of the MTT solution (15 mg in 50 mL of PBS) was added to each well, and the cells were incubated for 4 h at 37° C. The medium was removed, and the formazan crystals formed in the cells were dissolved in DMSO. Absorbance at 570 nm was measured in an Ultramark Microplate Imaging System. The data are expressed as the percent of viable cells compared to the untreated control cells.\nas §2"}}, "note": "Where two headings read alike, the source gives them in different places."}
{"compound": "CCCCCCCC/C=C\\CCCCCCCC(=O)OCC(C[N+](C)(C)C)OC(=O)CCCCCCC/C=C\\CCCCCCCC.[Cl-]", "note": "(stereo not drawn) [DOTAP]", "values": [{"measurement": "sensitization of cells to cisplatin", "setting": "[1]; lipid 10 μM", "result": "not"}, {"measurement": "ERK1/2 activation", "setting": "[2]", "result": "increased ERK1/2 activation"}, {"measurement": "apoptosis rate (flow cytometry with PI staining)", "setting": "[3]", "result": "4.7±0.5", "unit": "%"}]}
{"compound": "CCCCCCCCCCCCCCCCCC[N+](C)(CCCCCCCCCCCCCCCCCC)CCNC(=O)[C@@H](N)CCCNC(=N)N", "note": "[DSAA, N-methyl-N-(2-(arginoylamino)ethyl)-N,N-Dioctadecyl aminium chloride]", "values": [{"measurement": "uptake of fluorescently-labeled siRNA (fluorescence photographs)", "setting": "[4]", "result": "much greater"}, {"measurement": "silencing effect of anti-luciferase siRNA", "setting": "[5]", "result": "greater"}]}
{"compound": "N.N.[Cl][Pt][Cl]", "note": "[cisplatin]", "values": [{"measurement": "IC50", "setting": "[1]; cisplatin alone, read-out: IC50 of cisplatin", "result": "~12", "unit": "µM"}, {"measurement": "IC50", "setting": "[1]; with lipids 1-3 (10 μM), read-out: IC50 of cisplatin after treatment with lipids 1-3", "result": 3.5, "unit": "µM"}]}
{"compound": "N,N-di-myristoyl-N-methyl-N-2[N′—(N^6-guanidino-L-lysinyl)]aminoethyl ammonium chloride [lipid 1]", "values": [{"measurement": "transfection efficiency (luciferase activity, RLU per μg protein)", "setting": "[6]", "result": "comparable to that of DOTAP and Lipofectamine 2000"}, {"measurement": "EC50", "setting": "[7]", "result": "~16", "unit": "µM"}, {"measurement": "apoptosis rate (flow cytometry with PI staining)", "setting": "[3]", "result": "10.4±3.0", "unit": "%"}]}
{"compound": "N,N-dimyristoyl-N-methyl-N-2[N′—(N2, N6-di-guanidino-L-lysinyl)]aminoethyl ammonium chloride [lipid 3]", "values": [{"measurement": "transfection efficiency (luciferase activity, RLU per μg protein)", "setting": "[6]", "result": "comparable to that of DOTAP and Lipofectamine 2000"}, {"measurement": "order of cytotoxicity", "setting": "[7]; 20 μM concentration of the corresponding lipids", "result": "lipid 1>lipid 3>lipid 2>DOTAP"}]}
